# In patent US10577362B2, “Substituted 2, 4-diamino-quinoline derivatives for use in the treatment of proliferative diseases” (GENOSCIENCE PHARMA, priority 2016, dated 2020):
# Counter-ions that a name gives are not always drawn.
# Columns and labels:
# Assay type in all cases: cell-based, human
# [1] = test system: HCT-116 (colorectal carcinoma) cell line; assay: CellTiter-Glo luminescent cell viability assay, HCT-116; conditions: Homo sapiens; for viability at 4 µM: HCT-116, compound at 4 μM; for viability at 4 µM / viability at 10 µM: 72 h; for viability at 10 µM: HCT-116, compound at 10 μM; for EC50: HCT-116 cell line, 72 h incubation, CellTiter-Glo, read-out: EC50, growth inhibition of HCT-116
# In short: (§1)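 Adherent cells grow overnight, or suspension cells are seeded 1 h ahead; compound dilutions are then added and plates incubated 72 h at 37 °C. After 30 min at room temperature, CellTiter-Glo reagent is added and luminescence recorded. EC50 derives from signal relative to diluent control.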
# [2] = test system: A375 (malignant melanoma) cell line; assay: CellTiter-Glo luminescent cell viability assay, A375; conditions: Homo sapiens, A-375; for viability at 4 µM: A375, compound at 4 μM; for viability at 4 µM / viability at 10 µM: 72 h; for viability at 10 µM: A375, compound at 10 μM; for EC50: A375 cell line, 72 h incubation, CellTiter-Glo, read-out: EC50, growth inhibition of A375
# In short: as §1
# [3] = test system: 786-O (renal adenocarcinoma) cell line; assay: CellTiter-Glo luminescent cell viability assay, 786-O; conditions: Homo sapiens, 786-0; for viability at 4 µM / viability at 10 µM: 786-O, 72 h; for viability at 4 µM: compound at 4 μM; for viability at 10 µM: compound at 10 μM; for EC50: 786-O cell line, 72 h incubation, CellTiter-Glo, read-out: EC50, growth inhibition of 786-O
# In short: as §1
# [4] = test system: MOLM-14 (acute myeloid leukemia) cell line; assay: CellTiter-Glo luminescent cell viability assay, MOLM-14; conditions: Homo sapiens; for viability at 4 µM: MOLM-14, compound at 4 μM; for viability at 4 µM / viability at 10 µM: 72 h; for viability at 10 µM: MOLM-14, compound at 10 μM; for EC50: MOLM-14 cell line, 72 h incubation, CellTiter-Glo, read-out: EC50, growth inhibition of MOLM-14
# In short: (§2)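 Luminescent signal, normalised to diluent-treated cultures, defines % viability; EC50 is the concentration lowering it to 50%. Cells had been exposed to compound for 72 h at 37 °C in medium with 10% FBS, at a constant H2O or DMSO percentage.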
# [5] = test system: HepG2 (hepatocellular carcinoma) cell line; assay: CellTiter-Glo luminescent cell viability assay, HepG2; conditions: Homo sapiens; for viability at 4 µM / viability at 10 µM: HepG2, HepG, 72 h; for viability at 4 µM: compound at 4 μM; for viability at 10 µM: compound at 10 μM; for EC50: HepG2 cell line, 72 h incubation, CellTiter-Glo, read-out: EC50, growth inhibition of HepG2
# In short: as §2
# [6] = test system: Huh7 (hepatocellular carcinoma) cell line; assay: CellTiter-Glo luminescent cell viability assay, Huh7; conditions: Homo sapiens, Huh-7; for viability at 4 µM: Huh7, compound at 4 μM; for viability at 4 µM / viability at 10 µM: 72 h; for viability at 10 µM: Huh7, compound at 10 μM; for EC50: Huh7 cell line, 72 h incubation, CellTiter-Glo, read-out: EC50, growth inhibition of Huh7
# In short: as §2
EC50 [2] [µM],EC50 [3] [µM],EC50 [4] [µM],EC50 [5] [µM],EC50 [6] [µM],EC50 [1] [µM],SMILES,viability at 4 µM [1] [%],viability at 10 µM [1] [%],viability at 4 µM [2] [%],viability at 10 µM [2] [%],viability at 4 µM [3] [%],viability at 10 µM [3] [%],viability at 4 µM [4] [%],viability at 10 µM [4] [%],viability at 4 µM [5] [%],viability at 10 µM [5] [%],viability at 4 µM [6] [%],viability at 10 µM [6] [%]
–,–,–,–,–,–,"CC(C)(C)NC1CCN(c2c(C#N)c(NCc3ccc(Cl)cc3)nc3ccccc23)CC1 [Compound 352CN, 2-(4-chlorobenzylamino)-3-cyano-4-[4-(tert-butylamino)piperidin-1-yl]quinoline]",43.9,0.5,29.1,0.5,52.4,0.5,76.9,0.6,71.2,0.6,73.2,0.6
0.5 to 5,5 to 10,0.5 to 5,0.5 to 5,5 to 10,–,"Cn1ncnc1Nc1nc2ccccc2c(N2CCC(NC(C)(C)C)CC2)c1C#N [Compound 3270CN, 2-[(1-methyl-1H-1,2,4-triazol-5-yl)amino]-3-cyano-4-[4-(tert-butylamino)piperidin-1-yl]quinoline]",47.4,6.3,49.2,31,52.6,34.7,33.2,1,37.5,24.1,79.6,32.3
–,–,–,–,–,–,"Cc1nccnc1OC1CCN(c2c(C#N)c(NCc3ccc(Cl)cc3)nc3ccccc23)C1 (centres unmarked) [Compound 3362CN, 2-(4-chlorobenzylamin)-3-cyano-4-{3-[(3-methylpyrazin-2-yl)oxy]pyrrolidin-1-yl}quinoline]",46.8,31.4,81.6,68.6,15.3,5.6,105,88.6,78.5,52.5,66.7,35.1
0.5 to 5,5 to 10,5 to 10,5 to 10,5 to 10,5 to 10,"Cc1cccc(OC2CCN(c3cc(NCc4ccc(Cl)cc4)nc4ccccc34)CC2)c1 [Compound 2946, 2-(4-chlorobenzylamino)-4-[4-(m-tolyloxy)piperidin-1-yl]quinoline hydrochloride]",–,–,–,–,–,–,–,–,–,–,–,–
–,–,–,–,–,–,"N#Cc1c(NCc2ccc(Cl)cc2)nc2ccccc2c1N1CCC(N2CCOCC2)CC1 [Compound 202CN, 2-(4-chlorobenzylamino)-3-cyano-4-[4-(morpholino)piperidin-1-yl]quinoline]",65.8,33.5,96.9,79.2,66.3,51.9,112,64.2,80.2,51.1,83.6,56.1
0.5 to 5,5 to 10,5 to 10,0.5 to 5,5 to 10,0.5 to 5,"Cc1ccc(Nc2nc3ccccc3c(N3CCC(NC(C)(C)C)CC3)c2C#N)cc1Nc1nccc(C(F)(F)F)n1 [Compound 538CN, 2-[3-(4-trifluoromethylpyrimidin-2-ylamino)-4-methyl-phenylamino]-3-cyano-4-(4-tert-butylaminopiperidin-1-yl)-quinoline]",–,–,–,–,–,–,–,–,–,–,–,–
–,–,–,–,–,–,"CC(C)N(Cc1ccc(Cl)cc1)c1cc(N2CCC(NC(C)(C)C)CC2)c2ccccc2n1 [Compound 216, 2-(N-4-chlorobenzyl-N-isopropylamino)-4-[4-(tert-butylamino)-piperidin-1-yl]-quinoline hydrochloride]",15.5,0.3,78.1,0.4,78.4,0.5,86.7,0.5,30.4,0.4,74.1,0.5
